PubChem BioAssay AID328 (DTP/NCI, 2004)
Where “and” joins values, the source holds several entries; their conditions need not be identical. Identical values can stand only once. Toxic doses and inconclusive results are not listed. Starred links: 1 amine or outer side, 2 acyl side, 3 side chain; linkers in the order of their positions; H or OH if unused. Positions of bridges follow the written chain, without caps; N, C: chain ends. Non-standard residues stand in square brackets, D forms with d. Residues, ends and D or L forms follow the SMILES beside them. Chains are numbered I, II in the order given. Actinocin(9to1) = Cc1c2oc3c(C)ccc(C(=O)[*:1])c3nc-2c(C(=O)[*:2])c(N)c1=O; NMeV = CN[CH](C(=O)O)C(C)C; Pip = O=C(O)[CH]1CCCCN1; Sar = CNCC(=O)O

System: BDF1 mice, P388 leukemia ip, median survival T/C
Test: NCI In Vivo Anticancer Drug Screen. Data for tumor model P388 Leukemia (intraperitoneal) in B6D2F1 (BDF1) mice
Conditions: endpoint: median survival time, higher = longer survival
Outline: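 Survival ratio, drug arm over vehicle arm, in mice with a transplanted tumour.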

[1] = dose: 100.0 mg/kg/injection, schedule: Q01DX009 (ip), vehicle: water
[2] = dose: 100.0 mg/kg/injection, schedule: Q04DX003 (ip), vehicle: water
[3] = dose: 200.0 mg/kg/injection, schedule: Q01DX009 (ip), vehicle: water
[4] = dose: 200.0 mg/kg/injection, schedule: Q04DX003 (ip), vehicle: water
[5] = dose: 400.0 mg/kg/injection, schedule: Q04DX003 (ip), vehicle: water
[6] = dose: 12.5 mg/kg/injection, schedule: Q01DX009 (ip), vehicle: saline
[7] = dose: 50.0 mg/kg/injection, schedule: Q01DX009 (ip), vehicle: saline
[8] = dose: 100.0 mg/kg/injection, schedule: Q01DX009 (ip), vehicle: Klucel (hydroxypropylcellulose) (HPC)
[9] = dose: 100.0 mg/kg/injection, schedule: Q04DX003 (ip), vehicle: Klucel (hydroxypropylcellulose) (HPC)
[10] = dose: 200.0 mg/kg/injection, schedule: Q01DX009 (ip), vehicle: Klucel (hydroxypropylcellulose) (HPC)
[11] = dose: 200.0 mg/kg/injection, schedule: Q04DX003 (ip), vehicle: Klucel (hydroxypropylcellulose) (HPC)
[12] = dose: 400.0 mg/kg/injection, schedule: Q01DX009 (ip), vehicle: Klucel (hydroxypropylcellulose) (HPC)
[13] = dose: 400.0 mg/kg/injection, schedule: Q04DX003 (ip), vehicle: Klucel (hydroxypropylcellulose) (HPC)

Q: Which T/C (dose: 6.25 mg/kg/injection, schedule: Q01DX009 (ip), vehicle: Klucel (hydroxypropylcellulose) (HPC)) does the source give for `CCOC(=O)C(Cc1ccc(N(CCCl)CCCl)cc1)NP1(=O)NCCCO1` (configuration not stated) here?
A: Its T/C is 153 % of control.

Q: What about the T/C (dose: 9.0 mg/kg/injection, schedule: Q04DX003 (ip), vehicle: Klucel (hydroxypropylcellulose) (HPC)) of the same molecule?
A: The T/C was 169 % of control.

Q: What about the T/C (dose: 9.5 mg/kg/injection, schedule: Q04DX003 (ip), vehicle: Klucel (hydroxypropylcellulose) (HPC)) of the same molecule?
A: The T/C was 154 % of control.

Q: What about the T/C (dose: 12.0 mg/kg/injection, schedule: Q04DX003 (ip), vehicle: Klucel (hydroxypropylcellulose) (HPC)) of the same molecule?
A: The T/C was 209 % of control.

Q: What about the T/C (dose: 12.5 mg/kg/injection, schedule: Q01DX009 (ip), vehicle: Klucel (hydroxypropylcellulose) (HPC)) of the same molecule?
A: The T/C was 230 % of control.

Q: What about the T/C (dose: 14.5 mg/kg/injection, schedule: Q04DX003 (ip), vehicle: Klucel (hydroxypropylcellulose) (HPC)) of the same molecule?
A: Its T/C is 166 % of control.

Q: And the T/C (dose: 22.0 mg/kg/injection, schedule: Q04DX003 (ip), vehicle: Klucel (hydroxypropylcellulose) (HPC))?
A: Its T/C is 166 % of control.

Q: And the T/C (dose: 25.0 mg/kg/injection, schedule: Q01DX009 (ip), vehicle: Klucel (hydroxypropylcellulose) (HPC))?
A: Its T/C is 230 % of control.

Q: And the T/C (dose: 25.0 mg/kg/injection, schedule: Q04DX003 (ip), vehicle: Klucel (hydroxypropylcellulose) (HPC))?
A: Its T/C is 272 % of control.

Q: And the T/C (dose: 33.0 mg/kg/injection, schedule: Q04DX003 (ip), vehicle: Klucel (hydroxypropylcellulose) (HPC))?
A: Its T/C is 250 % of control and 212 % of control.

Q: And the T/C (dose: 50.0 mg/kg/injection, schedule: Q04DX003 (ip), vehicle: Klucel (hydroxypropylcellulose) (HPC))?
A: Its T/C is 250 % of control and 181 % of control.

Q: And the T/C (dose: 75.0 mg/kg/injection, schedule: Q04DX003 (ip), vehicle: Klucel (hydroxypropylcellulose) (HPC))?
A: The T/C was 91 % of control.

Q: For `CCNC(C)(C)C(SS(=O)(=O)O)c1cccs1` (configuration not stated), which T/C [1] is on record?
A: The T/C was 121 % of control.

Q: And the T/C [2]?
A: Its T/C is 102 % of control.

Q: What about the T/C [3] of the same molecule?
A: The T/C was 121 % of control.

Q: What about the T/C [4] of the same molecule?
A: Its T/C is 111 % of control.

Q: And the T/C [5]?
A: Its T/C is 93 % of control.

Q: Which results are given for `OCC1CSCN1` (configuration not stated)?
A: T/C (dose: 50.0 mg/kg/injection, schedule: Q04DX002 (ip), vehicle: saline): 100 % of control; T/C (dose: 100.0 mg/kg/injection, schedule: Q04DX002 (ip), vehicle: saline): 103 % of control; T/C (dose: 200.0 mg/kg/injection, schedule: Q04DX002 (ip), vehicle: saline): 98 % of control

Q: With `CCCN(CCC)CC(O)c1cc(C(F)(F)F)nc2c(C(F)(F)F)cccc12` (configuration not stated) as the molecule, how does the T/C (dose: 50.0 mg/kg/injection, schedule: Q01DX009 (ip), vehicle: saline with Tween-80) read?
A: The T/C was 103 % of control.

Q: And the T/C (dose: 100.0 mg/kg/injection, schedule: Q01DX009 (ip), vehicle: saline with Tween-80)?
A: Its T/C is 100 % of control.

Q: And the T/C (dose: 200.0 mg/kg/injection, schedule: Q01DX009 (ip), vehicle: saline with Tween-80)?
A: Its T/C is 97 % of control.

Q: For `Cc1cc(N(CCOS(C)(=O)=O)CCOS(C)(=O)=O)ccc1C=O`, which T/C (dose: 12.5 mg/kg/injection, schedule: Q04DX003 (ip), vehicle: saline with Tween-80) is on record?
A: The T/C was 231 % of control.

Q: What about the T/C (dose: 25.0 mg/kg/injection, schedule: Q04DX003 (ip), vehicle: saline with Tween-80) of the same molecule?
A: The T/C was 120 % of control.

Q: With `NNc1cc(N)[nH]n1` as the molecule, how does the T/C [6] read?
A: The T/C was 106 % of control.

Q: What about the T/C (dose: 25.0 mg/kg/injection, schedule: Q01DX009 (ip), vehicle: saline) of the same molecule?
A: Its T/C is 100 % of control.

Q: And the T/C [7]?
A: The T/C was 100 % of control.

Q: And the T/C (dose: 100.0 mg/kg/injection, schedule: Q01DX009 (ip), vehicle: saline)?
A: Its T/C is 93 % of control.

Q: `CCOC(=O)/C=C(\C)Nc1ccc(NC(C)=O)cc1` was tested. Which T/C (dose: 25.0 mg/kg/injection, schedule: Q01DX009 (ip), vehicle: water) did it give?
A: The T/C was 91 % of control.

Q: And the T/C (dose: 50.0 mg/kg/injection, schedule: Q01DX009 (ip), vehicle: water)?
A: Its T/C is 89 % of control.

Q: And the T/C (dose: 50.0 mg/kg/injection, schedule: Q04DX003 (ip), vehicle: water)?
A: Its T/C is 106 % of control.

Q: And the T/C [1]?
A: The T/C was 94 % of control.

Q: And the T/C [2]?
A: The T/C was 111 % of control.

Q: And the T/C [3]?
A: Its T/C is 110 % of control.

Q: And the T/C [4]?
A: Its T/C is 120 % of control.

Q: And the T/C (dose: 400.0 mg/kg/injection, schedule: Q01DX009 (ip), vehicle: water)?
A: Its T/C is 94 % of control.

Q: And the T/C [5]?
A: Its T/C is 103 % of control.

Q: Which results are given for `C1=C(c2ccccc2)OC(c2ccccc2)C1c1ccccc1` (configuration not stated)?
A: T/C (dose: 25.0 mg/kg/injection, schedule: Q01DX005 (ip), vehicle: saline with Tween-80): 94 % of control; T/C (dose: 50.0 mg/kg/injection, schedule: Q01DX005 (ip), vehicle: saline with Tween-80): 94 % of control

Q: What does the source list for `O=C(CSCC(=O)c1ccc(Br)cc1)c1ccc(Br)cc1`?
A: T/C (dose: 100.0 mg/kg/injection, schedule: Q01DX001 (ip), vehicle: Klucel (hydroxypropylcellulose) (HPC)): 100 % of control; T/C (dose: 200.0 mg/kg/injection, schedule: Q01DX001 (ip), vehicle: Klucel (hydroxypropylcellulose) (HPC)): 100 % of control; T/C (dose: 400.0 mg/kg/injection, schedule: Q01DX001 (ip), vehicle: Klucel (hydroxypropylcellulose) (HPC)): 100 % of control

Q: Which results are given for `Cc1c2oc3c(C)ccc(C(=O)NC4C(=O)NC(C(C)C)C(=O)N5CCCCC5C(=O)N(C)CC(=O)N(C)C(C(C)C)C(=O)OC4C)c3nc-2c(C(=O)NC2C(=O)NC(C(C)C)C(=O)N3CCCCC3C(=O)N(C)CC(=O)N(C)C(C(C)C)C(=O)OC2C)c(N)c1=O` (configuration not stated) (I: TV[Pip][Sar][NMeV] / II: TV[Pip][Sar][NMeV]; ester I:1-I:C, II:1-II:C; linker I:N-II:N via Actinocin(9to1); configuration not given here)?
A: T/C (dose: 0.25 mg/kg/injection, schedule: Q01DX009 (ip), vehicle: saline + alcohol): 114 % of control; T/C (dose: 0.75 mg/kg/injection, schedule: Q04DX003 (ip), vehicle: saline + alcohol): 116 % of control; T/C (dose: 2.0 mg/kg/injection, schedule: Q01DX009 (ip), vehicle: saline + alcohol): 162 % of control; T/C (dose: 4.0 mg/kg/injection, schedule: Q01DX009 (ip), vehicle: saline + alcohol): 180 % of control; T/C (dose: 6.0 mg/kg/injection, schedule: Q04DX003 (ip), vehicle: saline + alcohol): 160 % of control; T/C (dose: 12.0 mg/kg/injection, schedule: Q04DX003 (ip), vehicle: saline + alcohol): 155 % of control

Q: Which T/C (dose: 100.0 mg/kg/injection, schedule: Q04DX003 (ip), vehicle: saline with Tween-80) does the source give for `CC(C)SC(=O)C[Si](C)(C)C` here?
A: The T/C was 166 % of control.

Q: What about the T/C (dose: 200.0 mg/kg/injection, schedule: Q04DX003 (ip), vehicle: saline with Tween-80) of the same molecule?
A: Its T/C is 166 % of control.

Q: For `CC(C)(C)c1cccc(C(C)(C)C)c1`, which T/C (dose: 100.0 mg/kg/injection, schedule: Q01DX001 (ip), vehicle: saline with Tween-80) is on record?
A: Its T/C is 100 % of control.

Q: What about the T/C (dose: 200.0 mg/kg/injection, schedule: Q01DX001 (ip), vehicle: saline with Tween-80) of the same molecule?
A: Its T/C is 94 % of control.

Q: How did the T/C [8] turn out when `Nc1ccc(Cl)cc1C(=O)c1ccc[nH]1` was run?
A: The T/C was 100 % of control.

Q: And the T/C [9]?
A: Its T/C is 100 % of control.

Q: And the T/C [10]?
A: Its T/C is 95 % of control.

Q: And the T/C [11]?
A: The T/C was 100 % of control.

Q: What about the T/C [12] of the same molecule?
A: Its T/C is 100 % of control.

Q: And the T/C [13]?
A: The T/C was 95 % of control.

Q: Which T/C [8] does the source give for `CCOc1ccccc1NC1=C(OC)C(=O)C(Nc2ccccc2OCC)=C(OC)C1=O` here?
A: The T/C was 100 % of control.

Q: And the T/C [9]?
A: Its T/C is 91 % of control.

Q: What about the T/C [10] of the same molecule?
A: The T/C was 95 % of control.

Q: What about the T/C [11] of the same molecule?
A: Its T/C is 91 % of control and 100 % of control.

Q: What about the T/C [12] of the same molecule?
A: Its T/C is 100 % of control.

Q: And the T/C [13]?
A: The T/C was 86 % of control.

Q: What does the source list for `Cc1cc(C=O)c(O)c(C=O)c1`?
A: T/C (dose: 100.0 mg/kg/injection, schedule: Q04DX002 (ip), vehicle: saline with Tween-80): 112 % of control; T/C (dose: 200.0 mg/kg/injection, schedule: Q04DX002 (ip), vehicle: saline with Tween-80): 110 % of control; T/C (dose: 400.0 mg/kg/injection, schedule: Q04DX002 (ip), vehicle: saline with Tween-80): 109 % of control

Q: Which results are given for `CS(C)=O.CS(C)=O.[Cl][Rh]([Cl])([Cl])[Cl]`?
A: T/C [6]: 120 % of control; T/C (dose: 22.0 mg/kg/injection, schedule: Q01DX009 (ip), vehicle: saline): 116 % of control and 120 % of control; T/C (dose: 33.0 mg/kg/injection, schedule: Q01DX009 (ip), vehicle: saline): 95 % of control and 116 % of control; T/C [7]: 166 % of control
